According to patent US20130210851A1, “Crystalline forms of a hexahydrofuro[3,4-c]quinoline derivative” (Boehringer Ingelheim International GmbH, priority 2011, published 2013):
Entries after “also recorded” stand apart in the source; their conditions may differ. Like-named read-outs stand apart in the source and are kept apart here.

Experiments:
Type in all cases: physicochemical
[1] = Hygroscopic behaviour, water sorption isotherms (DVS-1); conditions: 25° C.; for hygroscopicity (in words): sorption isotherms 10% to 90% r.h.; for uptake of water: up to 90% r.h.
Procedure: To study the hygroscopic behaviour of this material, sorption isotherms are registered on a DVS-1 water sorption monitor from Surface Measurement Systems. Adsorption and desorption isotherms are performed at 25° C. with 10% r.h. step intervals ranging from 10% r.h. up to 90% r.h.

[2] = Solubility of the saturated solution in aqueous media; conditions: thermodynamic from solid, 48 h shaking at room temperature, read-out: solubility RT - values
[3] = Intrinsic dissolution rate in aqueous media (rotating disc method); conditions: 37° C., 200 rpm
Procedure: The intrinsic dissolution rate of the crystalline hydrochloride salt form of (3R,9S)-4-isopropyl-7,7-dimethyl-3-(4-(trifluoromethyl)phenyl)-2′,3′,5′,6,6′,7,8,9-octahydro-3H-spiro[furo[3,4-c]quinoline-1,4′-pyran]-9-ol is determined in aqueous media covering a range of pH 1.1-7.4 using the rotating disc method which maintains a constant surface area. 5 mg drug substance is compressed to form a disc at 356.1 N for 60 s. These discs are mounted to specially designed sample holders which fit into a Sotax dissolution tester. The dissolution media (37° C.) are stirred at 200 rpm. Samples are automatically withdrawn every second minute from the dissolution vessel and assayed via UV spectrophotometry. The intrinsic dissolution rate expressed in μg/cm^2/min is calculated using the slope of the concentration versus time plot and from the linear portion of the slope of the dissolution curve, volume of dissolution medium (35 ml) and area (diameter: 2 mm) of the exposed disk.

[4] = Solid state stability under harsh stress conditions
Text: Under all applied severe stress conditions only very low or minor decomposition (Σ</=about 6% degradation impurities measured as peak area percentage from HPLC-diagrams using a standard gradient technique) can be observed.

Which “hygroscopicity (in words)” value [1] does the source give for `CC(C)c1nc2c(c3c1[C@@H](c1ccc(C(F)(F)F)cc1)OC31CCOCC1)[C@@H](O)CC(C)(C)C2` [compound of formula (I), (3R,9S)-4-isopropyl-7,7-dimethyl-3-(4-(trifluoromethyl)phenyl)-2′,3′,5′,6,6′,7,8,9-octahydro-3H-spiro[furo[3,4-c]quinoline-1,4′-pyran]-9-ol] here?
Its value is “not hygroscopic”.

And the uptake of water [1]?
The uptake of water was “about 0.2%”.

Which “hygroscopicity (in words)” value [1] does the source give for `Br.CC(C)c1nc2c(c3c1[C@@H](c1ccc(C(F)(F)F)cc1)OC31CCOCC1)[C@@H](O)CC(C)(C)C2` [crystalline hydrobromide salt form, Hydrogen Bromide Salt of (3R,9S)-4-isopropyl-7,7-dimethyl-3-(4-(trifluoromethyl)phenyl)-2′,3′,5′,6,6′,7,8,9-octahydro-3H-spiro[furo[3,4-c]quinoline-1,4′-pyran]-9-ol] here?
Its value is “not hygroscopic”.

What about the uptake of water [1] of the same compound?
The uptake of water was “about 0.9%”.

With `CC(C)c1nc2c(c3c1[C@@H](c1ccc(C(F)(F)F)cc1)OC31CCOCC1)[C@@H](O)CC(C)(C)C2.Cl` [crystalline hydrochloride salt form, Hydrogen Chloride Salt of (3R,9S)-4-isopropyl-7,7-dimethyl-3-(4-(trifluoromethyl)phenyl)-2′,3′,5′,6,6′,7,8,9-octahydro-3H-spiro[furo[3,4-c]quinoline-1,4′-pyran]-9-ol] as the compound, how does the solubility at 48 h ([2]; McIlvaine buffer, aqueous buffer, McIlvaine pH 2.2, intrinsic pH 2.0) read?
Its solubility at 48 h is 1600 µg/mL.

And the solubility at 48 h ([2]; McIlvaine buffer, aqueous buffer, McIlvaine pH 3.0, intrinsic pH 3.0)?
The solubility at 48 h was 400 µg/mL.

What about the solubility at 48 h ([2]; McIlvaine buffer, aqueous buffer, McIlvaine pH 4.0, intrinsic pH 4.0) of the same compound?
Its solubility at 48 h is 90 µg/mL.

And the solubility at 48 h ([2]; McIlvaine buffer, aqueous buffer, McIlvaine pH 4.5, intrinsic pH 4.6)?
The solubility at 48 h was 30 µg/mL.

What about the solubility at 48 h ([2]; McIlvaine buffer, aqueous buffer, McIlvaine pH 5.0, intrinsic pH 5.1) of the same compound?
Its solubility at 48 h is 3 µg/mL.

What about the solubility at 48 h ([2]; McIlvaine buffer, aqueous buffer, McIlvaine pH 6.0, intrinsic pH 6.2) of the same compound?
Its solubility at 48 h is under 3 µg/mL.

And the solubility at 48 h ([2]; McIlvaine buffer, aqueous buffer, McIlvaine pH 6.8, intrinsic pH 7.0)?
Its solubility at 48 h is under 3 µg/mL.

What about the solubility at 48 h ([2]; McIlvaine buffer, aqueous buffer, McIlvaine pH 7.4, intrinsic pH 7.7, determined by LC/MS) of the same compound?
Its solubility at 48 h is 0.26 µg/mL.

What about the solubility at 48 h ([2]; Sorensen buffer, aqueous buffer, Sorensen pH 10.0, intrinsic pH 9.6) of the same compound?
The solubility at 48 h was under 3 µg/mL.

What about the solubility at 48 h ([2]; acetate buffer, aqueous buffer, Acetate pH 3.0, intrinsic pH 3.0) of the same compound?
The solubility at 48 h was 200 µg/mL.

And the solubility at 48 h ([2]; acetate buffer, aqueous buffer, Acetate pH 4.0, intrinsic pH 4.2)?
The solubility at 48 h was 60 µg/mL.

What about the solubility at 48 h ([2]; acetate buffer, aqueous buffer, Acetate pH 5.0, intrinsic pH 5.3) of the same compound?
Its solubility at 48 h is 6 µg/mL.

And the solubility at 48 h ([2]; simulated gastric fluid, 0.01N HCl, intrinsic pH 1.9)?
The solubility at 48 h was 1900 µg/mL.

And the solubility at 48 h ([2]; simulated gastric fluid, 0.1N HCl, intrinsic pH 0.9)?
The solubility at 48 h was 4100 µg/mL.

What about the solubility at 48 h ([2]; FaSSIF (Fasted State Simulated Intestinal), intrinsic pH 6.5) of the same compound?
Its solubility at 48 h is 20 µg/mL.

What about the solubility at 48 h ([2]; FeSSIF (Fed State Simulated Intestinal), intrinsic pH 5.0) of the same compound?
Its solubility at 48 h is 30 µg/mL.

And the solubility at 48 h ([2]; water, intrinsic pH 1.6)?
The solubility at 48 h was 3100 µg/mL.

And the dissolution rate ([3]; 0.1N HCl)?
The dissolution rate was 230 μg/cm^2/min.

What about the dissolution rate ([3]; pH 2.2 (McIlvaine)) of the same compound?
Its dissolution rate is 250 μg/cm^2/min.

What about the dissolution rate ([3]; pH 3.0 (McIlvaine)) of the same compound?
Its dissolution rate is 60 μg/cm^2/min.

What about the dissolution rate ([3]; pH 4.0 (McIlvaine)) of the same compound?
Its dissolution rate is 10 μg/cm^2/min.

And the dissolution rate ([3]; pH 4.5 (McIlvaine))?
Its dissolution rate is 10 μg/cm^2/min.

What about the dissolution rate ([3]; water) of the same compound?
Its dissolution rate is 10 μg/cm^2/min.

What about the “hygroscopicity (in words)” value [1] of the same compound?
The value was “not hygroscopic; also recorded: non-hygroscopic”.

And the “decomposition, sum of degradation impurities (peak area percentage from HPLC)” value ([4]; all stress conditions: 24 hours at 105° C., 72 hours at 60° C. and 70% rel. humid., 24 hours in a Xenotester)?
Its value is at most 6%.

And the “solid state stability (in words)” value ([4]; harsh stress conditions for solid state)?
Its value is “stable in the solid state”.
